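Growth conditions: 96-well plates. Treatment: test compound, 48 hours, 5 concentrations. Analysis: linear interpolation between bracketing concentrations; unreached endpoints set to highest concentration. GI50 = concentration required for 50% inhibition of growth. TGI marks complete inhibition of growth.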
Assays:
Assay in all cases: NCI-60 cell line screen, 48 h
DLD-1 colon = test system: DLD-1 colon
HCC-2998 colon = test system: HCC-2998 colon
HOP-18 NSCLC = test system: HOP-18 NSCLC
KM20L2 colon = test system: KM20L2 colon
SNB-75 CNS = test system: SNB-75 CNS
TK-10 renal = test system: TK-10 renal
A498 renal = test system: A498 renal
COLO 205 colon = test system: COLO 205 colon
HOP-62 NSCLC = test system: HOP-62 NSCLC
MCF7 breast = test system: MCF7 breast
MOLT-4 leukemia = test system: MOLT-4 leukemia
NCI/ADR-RES ovarian = test system: NCI/ADR-RES ovarian
OVCAR-3 ovarian = test system: OVCAR-3 ovarian
SF-268 CNS = test system: SF-268 CNS

O=C1C(=C([O-])c2ccccc2)C(=O)c2ccccc21.O=C1C(=C([O-])c2ccccc2)C(=O)c2ccccc21.[Ni+2]
GI50 (DLD-1 colon): 40.2 µM | TGI (DLD-1 colon): > 100 µM | GI50 (HCC-2998 colon): 58.9 µM | TGI (HCC-2998 colon): > 100 µM | GI50 (HOP-18 NSCLC): 27.9 µM | TGI (HOP-18 NSCLC): > 100 µM | GI50 (KM20L2 colon): > 100 µM | TGI (KM20L2 colon): > 100 µM | GI50 (SNB-75 CNS): 35.2 µM | TGI (SNB-75 CNS): > 100 µM | GI50 (TK-10 renal): > 100 µM | TGI (TK-10 renal): > 100 µM

COc1cc(O)c(Cc2ccccc2O)c(O)c1C(=O)CCc1ccccc1
TGI (A498 renal): 14.4 µM | TGI (COLO 205 colon): 16.5 µM | TGI (DLD-1 colon): 30.7 µM | TGI (HCC-2998 colon): 19.8 µM | TGI (HOP-18 NSCLC): 4.53 µM | TGI (HOP-62 NSCLC): 9.89 µM | TGI (KM20L2 colon): 24.6 µM | TGI (MCF7 breast): 18 µM | TGI (MOLT-4 leukemia): 10.5 µM | TGI (NCI/ADR-RES ovarian): 18.9 µM | TGI (OVCAR-3 ovarian): 16.1 µM | TGI (SF-268 CNS): 33.5 µM | TGI (SNB-75 CNS): 19.7 µM

COC(=O)c1c(O)ccc2c1c1c(n2Cc2cccc(C)c2)C(=O)c2ccccc2C1
TGI (A498 renal): > 75 µM | TGI (COLO 205 colon): 22.3 µM | TGI (HOP-62 NSCLC): 51.6 µM | TGI (MCF7 breast): > 75 µM | TGI (MOLT-4 leukemia): 44.5 µM | TGI (NCI/ADR-RES ovarian): > 75 µM | TGI (OVCAR-3 ovarian): > 75 µM | TGI (SF-268 CNS): > 75 µM | TGI (TK-10 renal): > 75 µM

Reference: PubChem BioAssay (NCI)
